In general, Papp refers to the rate of passage across a membrane or cell layer, normalised by area and donor concentration. Low readings indicate poor permeation, high ones ready permeation.

The structures appear in SMILES notation.

Series [1] deals with porcine brain endothelial cell (PBEC) co-culture model. Description: In vitro blood-brain barrier permeability (PBEC/rat astrocyte co-culture). The note with it: in words.
Description: (§1) Permeability studies were performed after 2 days of co-culture with rat astrocytes. […] In each filter used for transport, a paracellular marker was included as an internal control to monitor the integrity of the cell monolayer. The day of the experiment, culture medium was removed and cells on Transwell inserts were pre-incubated for 30 min with Hank's Balanced Salt Solution (HBSS) containing 20 mM Hepes pH 7.4 and 0.1% bovine serum albumin (BSA). […] Aliquots from the basal compartment were taken after 1 h; fluorescence was measured using a fluorescence detector. The permeability coefficient of the total system was calculated as follows: P[cm/s]=Vd×ΔMr/A×Md×Δt Where:
(§2) To correct for the contribution of the porous polycarbonate membrane of the filter in the absence of cells, the permeability was also determined for the cell-free system. Contribution of the endothelial cell monolayer to the permeability of the cell and filter system was determined by the following equation: 1/Pe=1/Pt-1/Pf Where the total permeability of the system is denoted as Pt, the cell-free filter as Pf, and the endothelial cell layer alone as Pe. The total resistance of the system towards passage of a substance is composed of 2 resistances in series: that of the cell monolayer and that of the filter; permeability is estimated as 1/resistance [27]. […] Mass balance was determined based on the amount of compound recovered in the donor and receiver chamber at the end of the assay relative to the amount added to the donor chamber at time 0.
Experiment in series [2]: as above
Description: as §1, §2
The note with it: pH 7.4, In Vitro Measured Papp, mean ± SD (n = 3).

For `C=CCN1CC[C@]23c4c5ccc(O)c4O[C@H]2C(=O)CC[C@@]3(O)[C@H]1C5` [Naloxone], in series [1], the “blood-brain barrier permeability classification” value is listed as “high permeability range”. Further, the Papp at 1 h in series [2] turned out to be 42.3 ± 11 ×10⁻⁶ cm/s.

The record behind these values is article PMC5844530, “Fosmetpantotenate (RE-024), a phosphopantothenate replacement therapy for pantothenate kinase-associated neurodegeneration: Mechanism of action and efficacy in nonclinical models” (PLoS ONE, 2018).
